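In this assay, cells in 96-well plates receive the compound at five concentrations for 48 hours. Endpoints are linearly interpolated between the surrounding concentrations. GI50: concentration for 50% inhibition of growth. The concentration for full growth arrest is given as TGI.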
Legend:
Assay in all cases: DTP human tumour cell line panel, 48 h
HT29 colon = system: HT29 colon
HOP-62 NSCLC = system: HOP-62 NSCLC
HCC-2998 colon = system: HCC-2998 colon
K-562 leukemia = system: K-562 leukemia
HS 578T breast = system: HS 578T breast
NCI-H226 lung = system: NCI-H226 lung
MDA-MB-435 = system: MDA-MB-435
CCRF-CEM leukemia = system: CCRF-CEM leukemia
SK-MEL-5 melanoma = system: SK-MEL-5 melanoma
SF-295 CNS = system: SF-295 CNS
U251 CNS = system: U251 CNS
EKVX NSCLC = system: EKVX NSCLC
SW-620 colon = system: SW-620 colon
SN12C renal = system: SN12C renal
NCI-H23 lung = system: NCI-H23 lung
BT-549 breast = system: BT-549 breast
SK-OV-3 ovarian = system: SK-OV-3 ovarian
SNB-75 CNS = system: SNB-75 CNS
KM12 colon = system: KM12 colon
MOLT-4 leukemia = system: MOLT-4 leukemia
UACC-257 melanoma = system: UACC-257 melanoma
A549 NSCLC = system: A549 NSCLC
SF-268 CNS = system: SF-268 CNS
HCT-116 colon = system: HCT-116 colon
M14 melanoma = system: M14 melanoma
PC-3 prostate = system: PC-3 prostate
SK-MEL-28 melanoma = system: SK-MEL-28 melanoma
HL-60(TB) leukemia = system: HL-60(TB) leukemia
MALME-3M melanoma = system: MALME-3M melanoma
NCI-H522 lung = system: NCI-H522 lung
SK-MEL-2 melanoma = system: SK-MEL-2 melanoma
SF-539 CNS = system: SF-539 CNS
NCI/ADR-RES ovarian = system: NCI/ADR-RES ovarian
OVCAR-5 ovarian = system: OVCAR-5 ovarian
TK-10 renal = system: TK-10 renal
MCF7 breast = system: MCF7 breast
HOP-92 NSCLC = system: HOP-92 NSCLC
ACHN renal = system: ACHN renal
LOX IMVI melanoma = system: LOX IMVI melanoma
OVCAR-4 ovarian = system: OVCAR-4 ovarian
OVCAR-8 ovarian = system: OVCAR-8 ovarian
OVCAR-3 ovarian = system: OVCAR-3 ovarian
RPMI-8226 leukemia = system: RPMI-8226 leukemia
A498 renal = system: A498 renal
SR leukemia = system: SR leukemia
T-47D breast = system: T-47D breast
DU-145 prostate = system: DU-145 prostate
IGROV1 ovarian = system: IGROV1 ovarian
NCI-H460 lung = system: NCI-H460 lung
MDA-MB-231 breast = system: MDA-MB-231 breast
CAKI-1 renal = system: CAKI-1 renal
RXF 393 renal = system: RXF 393 renal
HCT-15 colon = system: HCT-15 colon
786-0 renal = system: 786-0 renal
UACC-62 melanoma = system: UACC-62 melanoma
SNB-19 CNS = system: SNB-19 CNS
UO-31 renal = system: UO-31 renal
COLO 205 colon = system: COLO 205 colon

With `Cc1[nH]nc2ccc3nc(-c4ccc5[nH]ncc5c4)c4c(c3c12)CCCC4` the GI50 (HT29 colon) was 1510 nM, the TGI (HT29 colon) was 12500 nM and the GI50 (HOP-62 NSCLC) was 1410 nM. The TGI (HOP-62 NSCLC) was 15100 nM, the GI50 (HCC-2998 colon) was 2190 nM and the TGI (HCC-2998 colon) was 15100 nM. It also gave a GI50 (K-562 leukemia) of 1700 nM, a TGI (K-562 leukemia) greater than 100000 nM and a GI50 (HS 578T breast) of 1340 nM. It also gave a TGI (HS 578T breast) of 12500 nM, a GI50 (NCI-H226 lung) of 1890 nM and a TGI (NCI-H226 lung) of 10800 nM. It also gave a GI50 (MDA-MB-435) of 1230 nM, a TGI (MDA-MB-435) of 12900 nM and a GI50 (CCRF-CEM leukemia) of 2130 nM. The TGI (CCRF-CEM leukemia) was greater than 100000 nM, the GI50 (SK-MEL-5 melanoma) was 1920 nM and the TGI (SK-MEL-5 melanoma) was 5000 nM. The GI50 (SF-295 CNS) was 2740 nM, the TGI (SF-295 CNS) was 10500 nM and the GI50 (U251 CNS) was 920 nM. For the same compound, the TGI (U251 CNS) was 13900 nM, the GI50 (EKVX NSCLC) was 2950 nM and the TGI (EKVX NSCLC) was 25700 nM. The GI50 (SW-620 colon) was 494 nM, the TGI (SW-620 colon) was 8790 nM and the GI50 (SN12C renal) was 2090 nM. It also gave a TGI (SN12C renal) of 12700 nM, a GI50 (NCI-H23 lung) of 2220 nM and a TGI (NCI-H23 lung) of 11200 nM. It also gave a GI50 (BT-549 breast) of 1100 nM, a TGI (BT-549 breast) of 8800 nM and a GI50 (SK-OV-3 ovarian) of 243 nM. For the same compound, the TGI (SK-OV-3 ovarian) was 940 nM, the GI50 (SNB-75 CNS) was 1520 nM and the TGI (SNB-75 CNS) was 7280 nM. The GI50 (KM12 colon) was 630 nM, the TGI (KM12 colon) was 13600 nM and the GI50 (MOLT-4 leukemia) was 1920 nM. It also gave a TGI (MOLT-4 leukemia) of 10100 nM, a GI50 (UACC-257 melanoma) of 1680 nM and a TGI (UACC-257 melanoma) of 6630 nM. For the same compound, the GI50 (A549 NSCLC) was 932 nM, the TGI (A549 NSCLC) was 12400 nM and the GI50 (SF-268 CNS) was 1970 nM. It also gave a TGI (SF-268 CNS) of 17800 nM, a GI50 (HCT-116 colon) of 473 nM and a TGI (HCT-116 colon) of 11300 nM. The GI50 (M14 melanoma) was 604 nM, the TGI (M14 melanoma) was 13300 nM and the GI50 (PC-3 prostate) was 2860 nM. For the same compound, the TGI (PC-3 prostate) was 23600 nM, the GI50 (SK-MEL-28 melanoma) was 2090 nM and the TGI (SK-MEL-28 melanoma) was 9540 nM. It also gave a GI50 (HL-60(TB) leukemia) of 1730 nM, a TGI (HL-60(TB) leukemia) of 4320 nM and a GI50 (MALME-3M melanoma) of 1330 nM. It also gave a TGI (MALME-3M melanoma) of 6320 nM, a GI50 (NCI-H522 lung) of 446 nM and a TGI (NCI-H522 lung) of 6010 nM. It also gave a GI50 (SK-MEL-2 melanoma) of 476 nM, a TGI (SK-MEL-2 melanoma) of 2480 nM and a GI50 (SF-539 CNS) of 1620 nM. The TGI (SF-539 CNS) was 8440 nM, the GI50 (NCI/ADR-RES ovarian) was 2400 nM and the TGI (NCI/ADR-RES ovarian) was 15800 nM. For the same compound, the GI50 (OVCAR-5 ovarian) was 2530 nM, the TGI (OVCAR-5 ovarian) was 13900 nM and the GI50 (TK-10 renal) was 1120 nM. For the same compound, the TGI (TK-10 renal) was 20000 nM, the GI50 (MCF7 breast) was 3540 nM and the TGI (MCF7 breast) was 17100 nM. For the same compound, the GI50 (HOP-92 NSCLC) was 1910 nM, the TGI (HOP-92 NSCLC) was 6000 nM and the GI50 (ACHN renal) was 367 nM. The TGI (ACHN renal) was 12900 nM, the GI50 (LOX IMVI melanoma) was 1220 nM and the TGI (LOX IMVI melanoma) was 11000 nM. It also gave a GI50 (OVCAR-4 ovarian) of 2120 nM, a TGI (OVCAR-4 ovarian) of 28000 nM and a GI50 (OVCAR-8 ovarian) of 1150 nM. The TGI (OVCAR-8 ovarian) was 13200 nM, the GI50 (OVCAR-3 ovarian) was 2070 nM and the TGI (OVCAR-3 ovarian) was 10600 nM. For the same compound, the GI50 (RPMI-8226 leukemia) was 1510 nM, the TGI (RPMI-8226 leukemia) was 6650 nM and the GI50 (A498 renal) was 280 nM. For the same compound, the TGI (A498 renal) was 1800 nM, the GI50 (SR leukemia) was 525 nM and the TGI (SR leukemia) was 25700 nM. The GI50 (T-47D breast) was 1140 nM, the TGI (T-47D breast) was 8220 nM and the GI50 (DU-145 prostate) was 1050 nM. It also gave a TGI (DU-145 prostate) of 12200 nM, a GI50 (IGROV1 ovarian) of 492 nM and a TGI (IGROV1 ovarian) of 7140 nM. For the same compound, the GI50 (NCI-H460 lung) was 832 nM, the TGI (NCI-H460 lung) was 11200 nM and the GI50 (MDA-MB-231 breast) was 1710 nM. It also gave a TGI (MDA-MB-231 breast) of 12700 nM, a GI50 (CAKI-1 renal) of 535 nM and a TGI (CAKI-1 renal) of 12000 nM. It also gave a GI50 (RXF 393 renal) of 230 nM, a GI50 (HCT-15 colon) of 638 nM and a TGI (HCT-15 colon) of 12600 nM. For the same compound, the GI50 (786-0 renal) was 1190 nM, the TGI (786-0 renal) was 12900 nM and the GI50 (UACC-62 melanoma) was 717 nM. For the same compound, the TGI (UACC-62 melanoma) was 6130 nM, the GI50 (SNB-19 CNS) was 2620 nM and the TGI (SNB-19 CNS) was 12100 nM. For the same compound, the GI50 (UO-31 renal) was 802 nM, the TGI (UO-31 renal) was 5990 nM and the GI50 (COLO 205 colon) was 1090 nM. The TGI (COLO 205 colon) was 10800 nM.

From PubChem BioAssay (NCI)
